According to patent US20200318195A1, “Bivalent Nucleic Acid Ligands and Uses Therefor” (Carnegie Mellon University, priority 2017, published 2020):

What was measured:
[1] = system: R11A; test: CD of ligand with perfect-match rCAG hairpin R11A; assay type: binding; settings: 0.1x PBS
Method: FIG. 12. CD titration of LG2 with R11A. The concentration of R11A was 0.5 μM and those of LG2 were X: 0, 1.5, 2.5, 3.5, 4.5, 5.5, 6.5, 8.5, and 11.5 μM. After the addition of LG2 to R11A, the mixtures were incubated at 37° C. for 30 min prior to the acquisition of data at 25° C.
(§1) FIG. 13. CD spectra of LG2 with the (A) mismatched R11U, (B) single-stranded WS and CS, and (C) double-stranded HP containing a single binding-site, as well as that of (D) LG2P with R11A. CD spectra of RNAs (line) and that of the [RNA+ligand] mixtures (dash).
A series of model RNA targets were chosen for binding study (FIG. 11). The R11X series comprised 24 rCXG-repeats (FIG. 11 (A)), which, upon adopting a secondary hairpin structure, provided 11 binding sites for ligands (FIG. 11(B)). R11A contained the perfect-match (A-A), while R11U and R11C contained the respective U—U and C—C mismatches for ligand binding. […]
(§2) The samples were prepared in 0.1× PBS buffer. […] All steady-state fluorescence samples were prepared by mixing ligands with RNA at the indicated concentrations in 0.1× PBS buffer, and annealed by incubation at 90° C. for 5 min followed by a gradual cooling to 37° C. […] Steady-state fluorescence data were collected at 25° C. by Cary Eclipse Fluorescence Spectrometer. […]

[2] = system: R11A; test: Steady-state fluorescent measurements of ligand with R11A; assay type: binding; settings: for fluorescent signals of ligand with R11A in presence of pentamidine: 2.5 uM of pentamidine; for reduction of emission signals upon the addition of R11A: 0.1x PBS
Method: (§3) FIG. 14. The effects of ligand orientation (LG2P), mismatched R11U and single-stranded targets (WS+CS). Inset: Fluorescent spectra of the corresponding samples after addition of 2.5 μM of pentamidine.
To further corroborate the UV-Vis and CD findings, we measured the fluorescent signals of ligands with and without RNA targets following an excitation at 330 nm (λmax of E-base). We observed a significant fluorescent quenching of LG3 compared to that of LG1 and LG2. Such a drastic reduction in the fluorescent signals could be due to photo-induced electron transfer quenching, which is expected to be most efficient for LG3 since the fluorophore (E) is stacked between two other J-bases. […] With all three ligands, the emission signals were further reduced upon the addition of R11A, but most dramatically with LG2, 60% reduction with LG2 as compared to 35 and 33% with LG1 and LG3, respectively. We observed a similar fluorescent quenching pattern upon the incubation of LG2 with R11U, [WS+CS], HP, and LG2P with R11A (FIG. 14)—although less dramatic as compared to that of LG2 with R11A. […] To test the hypothesis that the nonspecific binding of ligand to RNA can lead to fluorescent quenching, we incubated the respective RNA targets with pentamidine prior to adding LG2 and vice versa.
The samples were prepared in 0.1× PBS buffer. All spectra represent an average of at least fifteen scans collected at 100 nm/min rate between 200 and 375 nm, in a 1-cm path-length cuvette at 25° C. CD spectrum from buffer solution was subtracted from the sample spectra, which were then smoothed via a five-point adjacent averaging algorithm. Steady-State fluorescent measurements. All steady-state fluorescence samples were prepared by mixing ligands with RNA at the indicated concentrations in 0.1× PBS buffer, and annealed by incubation at 90° C. for 5 min followed by a gradual cooling to 37° C. The samples were incubated at 37° C. for 1 hr before the measurements. Steady-state fluorescence data were collected at 25° C. by Cary Eclipse Fluorescence Spectrometer. (εex=330 nm, εem=340-600 nm) with slit size.

[3] = system: HP; test: Steady-state fluorescent measurements of ligand with HP; assay type: binding; settings: excitation at 330 nm
Excerpt: (§4) To further corroborate the UV-Vis and CD findings, we measured the fluorescent signals of ligands with and without RNA targets following an excitation at 330 nm (λmax of E-base). We observed a significant fluorescent quenching of LG3 compared to that of LG1 and LG2. Such a drastic reduction in the fluorescent signals could be due to photo-induced electron transfer quenching, which is expected to be most efficient for LG3 since the fluorophore (E) is stacked between two other J-bases. […] With all three ligands, the emission signals were further reduced upon the addition of R11A, but most dramatically with LG2, 60% reduction with LG2 as compared to 35 and 33% with LG1 and LG3, respectively. We observed a similar fluorescent quenching pattern upon the incubation of LG2 with R11U, [WS+CS], HP, and LG2P with R11A (FIG. 14)—although less dramatic as compared to that of LG2 with R11A. […]
as §2

[4] = system: R11U; test: Steady-state fluorescent measurements of ligand with R11U; assay type: binding
Method: as §3
as §4, with “respectively.” for “respectively. We observed a similar fluorescent quenching pattern upon the incubation of LG2 with R11U, [WS+CS], HP, and LG2P with R11A (FIG. 14)—although less dramatic as compared to that of LG2 with R11A.”
as §2

[5] = system: [WS+CS]; test: Steady-state fluorescent measurements of ligand with single strands; assay type: binding
Method: as §3
as §4, with “respectively.” for “respectively. We observed a similar fluorescent quenching pattern upon the incubation of LG2 with R11U, [WS+CS], HP, and LG2P with R11A (FIG. 14)—although less dramatic as compared to that of LG2 with R11A.”
as §2

[6] = system: double-stranded HP containing a single binding-site; test: CD of ligand with hairpin containing a single binding-site; settings: 0.1x PBS
Excerpt: as §1
(§5) A series of model RNA targets were chosen for binding study (FIG. 11). The R11X series comprised 24 rCXG-repeats (FIG. 11 (A)), which, upon adopting a secondary hairpin structure, provided 11 binding sites for ligands (FIG. 11(B)). R11A contained the perfect-match (A-A), while R11U and R11C contained the respective U—U and C—C mismatches for ligand binding. R11G (X=G) was not ascertained since it has shown to be capable of forming G-quadruplex as well as hairpin structures, which could confound the interpretation of the experimental results. Single-stranded RNA targets, WS (Watson Strand) and CS (Crick Strand), with the LG2 binding-site underlined (FIG. 11 (C)), as well as double-stranded hairpin HP containing a single ligand binding-site (FIG. 11 (D)), were also examined. […]
as §2

[7] = system: R11U; test: CD of ligand with mismatched R11U; assay type: binding; settings: 0.1x PBS
Excerpt: as §1, §5, §2

[8] = system: R11C; test: CD of ligand with mismatched R11C; assay type: binding; settings: 0.1x PBS; data not shown
Excerpt: as §5, with “examined. The samples were prepared by incubating the pre-annealed RNAs with respective ligands in 0.1× PBS buffer (1 mM NaPi, 13.7 mM NaCl, 0.27 mM KCl; pH 7.4) at 37° C.” for “examined.”
as §2

[9] = system: single-stranded WS and CS; test: CD of ligand with single-stranded RNA targets; assay type: binding; settings: 0.1x PBS
Excerpt: as §1, §5, §2

[10] = system: R11A; test: NMR titration of ligand with R11A; assay type: binding; settings: R11A 0.1 mM, 0.1x PBS
Method: FIG. 15. NMR titration of LG2 with R11A. The concentration of R11A was 0.1 mM. Aliquots of LG2 at the indicated molar ratios were added to R11A and incubated at 37° C. for 15 min prior to data acquisition. Solvent-exchangeable protons are indicated by dashed lines, and nonexchangeable protons by vertical solid lines.
To gain insight into the binding mode of LG2, we performed a series of multinuclear and multidimensional NMR experiments with LG2, R11A, and in combination. The samples were prepared in the same 0.1× PBS buffer as before, containing a 9:1 volume ratio of H2O:D2O The NOESY data were collected at 300, 200, and 100 ms mixing times to obtain proton-proton distance, while COSY experiments were performed to map the proton spin-system of each residue. The expectation was that H-bonding interactions between LG2 and R11A would result in line-broadening and downfield chemical shift of the imino proton signals of the canonical G-C/C-G pairs due to base-pair opening, and in an emergence of a new set of imino proton signals due to the formation of H-bonds between ligand and RNA. […] Variable-temperature measurements further supported this chemical shift assignment, showing a gradual decay in peak intensity with increasing temperature while that of the non-exchangeable protons remained fairly constant. Partial assignments of the nucleobase protons were made by NOESY experiments. […]

H-EFI-Lys-NH2 [LG2]
differential in CD amplitude with R11A, among the ligand series ([1]; signals at ~270 nm): largest differential in CD amplitude
fluorescent signals of ligand with R11A in presence of pentamidine [2]: remained suppressed
reduction of emission signals upon the addition of R11A ([2]; excitation at 330 nm): 60%
fluorescent quenching with HP compared to that of LG2 with R11A [3]: less dramatic
fluorescent signals of ligand with R11U in presence of pentamidine ([4]; 2.5 uM of pentamidine): fully recovered
fluorescent quenching with R11U compared to that of LG2 with R11A ([4]; excitation at 330 nm): less dramatic
fluorescent signals of ligand with [WS+CS] in presence of pentamidine ([5]; 2.5 uM of pentamidine): fully recovered
fluorescent quenching with [WS+CS] compared to that of LG2 with R11A ([5]; excitation at 330 nm): less dramatic
change in CD signals after incubation with HP [6]: no significant differences in the CD signals
change in CD signals after incubation with mismatched R11U [7]: no significant differences in the CD signals
change in CD signals after incubation with mismatched R11C [8]: no significant differences in the CD signals
change in CD signals after incubation with single-stranded WS and CS [9]: no significant differences in the CD signals
new imino proton signals in the 10-20 ppm regimes (H-bond formation between ligand and RNA) [10]: did not observe any new imino proton signals
imino proton signal of R11A upon the addition of ligand ([10]; 9:1 H2O:D2O): gradually broadened and downfield-shifted

H-IEF-Lys-NH2 [LG3]
reduction of emission signals upon the addition of R11A ([2]; excitation at 330 nm): 33%

H-FIE-Lys-NH2 [LG1]
reduction of emission signals upon the addition of R11A ([2]; excitation at 330 nm): 35%

H-IPE-Lys-NH2 [LG2P]
change in CD signals after incubation with R11A [1]: no significant differences in the CD signals
fluorescent signals of ligand with R11A in presence of pentamidine [2]: fully recovered
fluorescent quenching with R11A compared to that of LG2 with R11A ([2]; excitation at 330 nm): less dramatic
